Data from publication PMC10205660 (Chemistry (Weinheim an der Bergstrasse, Germany), 2023).
Read-outs that look alike come from different tables or passages of the source.

Key:
Format in all cases: cell-based
MCF7 (breast cancer) = experiment: Antiproliferative activity, MCF7
K562 (leukemia) = experiment: Antiproliferative activity, K562
A549 (lung cancer) = experiment: Antiproliferative activity, A549; details: Homo sapiens
[1] = tested on: MCF7, K562 and A549 cell lines; experiment: Antiproliferative activity, statements in text without a single cell line; details: for antiproliferative activity at highest concentration: at 4 μM
[2] = Homo sapiens, MCF7, read-out: IC50 values MCF7
[3] = Homo sapiens, K562, read-out: IC50 values K562
[4] = A549, read-out: IC50 values A549
[5] = Homo sapiens, MCF7, read-out: IC50 values MCF7, MCF7
[6] = Homo sapiens, K562, read-out: IC50 values K562, K562

Structure (SMILES) | IC50 (A549 (lung cancer); [4]) [nM] | IC50 (MCF7 (breast cancer); [5]) [nM] | IC50 (K562 (leukemia); [6]) [nM] | IC50 (MCF7 (breast cancer); [2]) [nM] | IC50 (K562 (leukemia); [3]) [nM] | other results
CCC[C@H](O)[C@@H](C)C(=O)NC/C=C\C[C@@H](C)[C@@H](OC(C)=O)[C@H](C)[C@@H]1C/C=C\C[C@H](C)[C@H](OC(C)=O)Cc2cc(OC)cc(O)c2C(=O)O1 [Compound 11, (2R,3R,4R,Z)-2-((3S,8S,9R,Z)-9-acetoxy-14-hydroxy-12-methoxy-8-methyl-1-oxo-3,4,7,8,9,10-hexahydro-1H-benzo[c][1]oxacyclododecin-3-yl)-8-((2R,3S)-3-hydroxy-2-methylhexanamido)-4-methyloct-6-en-3-yl acetate] | > 4000 | – | – | > 4000 | > 4000 | antiproliferative activity at highest concentration [1]: inactive
CCC[C@H](O)[C@@H](C)C(=O)NC/C=C\C[C@@H](C)[C@@H](O)[C@H](C)[C@@H]1C/C=C\C[C@H](C)[C@H](OC(=O)[C@H](N)C(C)C)Cc2cc(OC)cc(O)c2C(=O)O1 [Compound 5, (3S,8S,9R,Z)-14-hydroxy-3-((2S,3R,4R,Z)-3-hydroxy-8-((2R,3S)-3-hydroxy-2-methylhexanamido)-4-methyloct-6-en-2-yl)-12-methoxy-8-methyl-1-oxo-3,4,7,8,9,10-hexahydro-1H-benzo[c][1]oxacyclododecin-9-yl D-valinate] | 1330 | 101 | 968 | – | – | –
CCC[C@H](OC(C)=O)[C@@H](C)C(=O)NC/C=C\C[C@@H](C)[C@@H](O)[C@H](C)[C@@H]1C/C=C\C[C@H](C)[C@H](OC(C)=O)Cc2cc(OC)cc(O)c2C(=O)O1 [Compound 8, (2R,3S)-1-(((5R,6R,7S,Z)-7-((3S,8S,9R,Z)-9-acetoxy-14-hydroxy-12-methoxy-8-methyl-1-oxo-3,4,7,8,9,10-hexahydro-1H-benzo[c][1]oxacyclododecin-3-yl)-6-hydroxy-5-methyloct-2-en-1-yl)amino)-2-methyl-1-oxohexan-3-yl acetate] | 3360 | – | – | 574 | 1280 | –
CCC[C@H](OC(C)=O)[C@@H](C)C(=O)NC/C=C\C[C@@H](C)[C@@H](OC(C)=O)[C@H](C)[C@@H]1C/C=C\C[C@H](C)[C@H](OC(C)=O)Cc2cc(OC)cc(O)c2C(=O)O1 [Compound 9, (2R,3R,4R,Z)-2-((3S,8S,9R,Z)-9-acetoxy-14-hydroxy-12-methoxy-8-methyl-1-oxo-3,4,7,8,9,10-hexahydro-1H-benzo[c][1]oxacyclododecin-3-yl)-8-((2R,3S)-3-acetoxy-2-methylhexanamido)-4-methyloct-6-en-3-yl acetate] | > 4000 | – | – | > 4000 | > 4000 | antiproliferative activity at highest concentration [1]: inactive
CCC[C@H](O)[C@@H](C)C(=O)NC/C=C\C[C@@H](C)[C@@H](O)[C@H](C)[C@@H]1C/C=C\C[C@H](C)[C@H](OC(=O)[C@H](N)Cc2ccccc2)Cc2cc(OC)cc(O)c2C(=O)O1 [Compound 6, (3S,8S,9R,Z)-14-hydroxy-3-((2S,3R,4R,Z)-3-hydroxy-8-((2R,3S)-3-hydroxy-2-methylhexanamido)-4-methyloct-6-en-2-yl)-12-methoxy-8-methyl-1-oxo-3,4,7,8,9,10-hexahydro-1H-benzo[c][1]oxacyclododecin-9-yl D-phenylalaninate] | 1280 | 114 | 1120 | – | – | –
CCC[C@H](OC(=O)[C@H](N)Cc1ccccc1)[C@@H](C)C(=O)NC/C=C\C[C@@H](C)[C@@H](O)[C@H](C)[C@@H]1C/C=C\C[C@H](C)[C@H](OC(=O)[C@H](N)Cc2ccccc2)Cc2cc(OC)cc(O)c2C(=O)O1 [Compound 7, (2R,3S)-1-(((5R,6R,7S,Z)-7-((3S,8S,9R,Z)-9-((D-phenylalanyl)oxy)-14-hydroxy-12-methoxy-8-methyl-1-oxo-3,4,7,8,9,10-hexahydro-1H-benzo[c][1]oxacyclododecin-3-yl)-6-hydroxy-5-methyloct-2-en-1-yl)amino)-2-methyl-1-oxohexan-3-yl D-phenylalaninate] | 2460 | 51 | 65 | – | – | IC50 (MCF7 (breast cancer); read-out: IC50 values MCF7, MCF7): 51.3 nM; IC50 (K562 (leukemia); read-out: IC50 values K562, K562): 64.6 nM
CCC[C@H](O)[C@@H](C)C(=O)NC/C=C\C[C@@H](C)[C@@H](O)[C@H](C)[C@@H]1C/C=C\C[C@H](C)[C@H](OC(=O)CN)Cc2cc(OC)cc(O)c2C(=O)O1 [Compound 3, (3S,8S,9R,Z)-14-hydroxy-3-((2S,3R,4R,Z)-3-hydroxy-8-((2R,3S)-3-hydroxy-2-methylhexanamido)-4-methyloct-6-en-2-yl)-12-methoxy-8-methyl-1-oxo-3,4,7,8,9,10-hexahydro-1H-benzo[c][1]oxacyclododecin-9-yl glycinate] | 1740 | – | – | 87.5 | 14.8 | fold difference of IC50 versus cruentaren A (K562 (leukemia); K562, versus cruentaren A): 10 fold
CCC[C@H](O)[C@@H](C)C(=O)NC/C=C\C[C@@H](C)[C@@H](O)[C@H](C)[C@@H]1C/C=C\C[C@H](C)C(=O)Cc2cc(OC)cc(O)c2C(=O)O1 [Compound 2, (2R,3S)-3-hydroxy-N-((5R,6R,7S,Z)-6-hydroxy-7-((3S,8S,Z)-14-hydroxy-12-methoxy-8-methyl-1,9-dioxo-3,4,7,8,9,10-hexahydro-1H-benzo[c][1]oxacyclododecin-3-yl)-5-methyloct-2-en-1-yl)-2-methylhexanamide] | 1640 | – | – | 972 | 1280 | –

Further lines, with some results ahead:

IC50 (A549 (lung cancer); [4]) [nM] | IC50 (MCF7 (breast cancer); [5]) [nM] | IC50 (K562 (leukemia); [6]) [nM] | Structure (SMILES) | IC50 (MCF7 (breast cancer); [2]) [nM] | IC50 (K562 (leukemia); [3]) [nM] | other results
1240 | 520 | 1120 | CCC[C@H](O)[C@@H](C)C(=O)NC[C@@H]1C[C@@H]1C[C@@H](C)[C@@H](O)[C@H](C)[C@@H]1C/C=C\C[C@H](C)[C@H](O)Cc2cc(OC)cc(O)c2C(=O)O1 [Compound 15, (2R,3S)-N-(((1R,2R)-2-((2R,3R,4S)-4-((3S,8S,9R,Z)-9,14-dihydroxy-12-methoxy-8-methyl-1-oxo-3,4,7,8,9,10-hexahydro-1H-benzo[c][1]oxacyclododecin-3-yl)-3-hydroxy-2-methylpentyl)cyclopropyl)methyl)-3-hydroxy-2-methylhexanamide] | – | – | fold reduction in activity compared to cruentaren A ([1]; versus cruentaren A, cell line not stated): 100 fold
1960 | 174 | 1160 | CCC[C@H](O)[C@@H](C)C(=O)NC/C=C\C[C@@H](C)[C@@H](O)[C@H](C)[C@@H]1C/C=C\C[C@H](C)[C@H](OC(C)=O)Cc2cc(OC)cc(O)c2C(=O)O1 [Compound 10, (3S,8S,9R,Z)-14-hydroxy-3-((2S,3R,4R,Z)-3-hydroxy-8-((2R,3S)-3-hydroxy-2-methylhexanamido)-4-methyloct-6-en-2-yl)-12-methoxy-8-methyl-1-oxo-3,4,7,8,9,10-hexahydro-1H-benzo[c][1]oxacyclododecin-9-yl acetate] | – | – | IC50 (MCF7 (breast cancer); Homo sapiens, MCF7, read-out: IC50 MCF7, MCF7): 170 nM; IC50 (K562 (leukemia); Homo sapiens, K562, read-out: IC50 K562, K562): 1160 nM; IC50 (A549 (lung cancer); A549, read-out: IC50 A549): 1960 nM
4000 | 179 | 1390 | CCC[C@H](O)[C@@H](C)C(=O)NCCCC[C@@H](C)[C@@H](O)[C@H](C)[C@@H]1CCCC[C@H](C)[C@H](O)Cc2cc(OC)cc(O)c2C(=O)O1 [Compound 12, (2R,3S)-N-((5R,6R,7S)-7-((3S,8S,9R)-9,14-dihydroxy-12-methoxy-8-methyl-1-oxo-3,4,5,6,7,8,9,10-octahydro-1H-benzo[c][1]oxacyclododecin-3-yl)-6-hydroxy-5-methyloctyl)-3-hydroxy-2-methylhexanamide] | – | – | –
